Results taken from the supplement of paper PMC7214452.

Key:
Assay in all cases: normalized area under the dose-response curve (viability relative to DMSO control) (fraction); higher = less sensitive (more viable cells)
Conditions in all cases: exposure time not given
AMO1 (cancer type: MM) = system: AMO1 (cancer type: MM)
Description: (§1)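 25 myeloma and 15 non-Hodgkin lymphoma cell lines were exposed to each of 76 drugs as 7-point log dilutions (0.01 nM–10 µM) in duplicate. Viability was read with CellTiter-Glo and normalised to DMSO (0.1%) and staurosporine (10 µM) plate controls. Normalised AUC was calculated by the trapezoidal method relative to the negative control.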

EJM (cancer type: MM) = system: EJM (cancer type: MM)
Description: as §1

FR4 (cancer type: MM) = system: FR4 (cancer type: MM)
Description: as §1

[1] = system: Granta-519 (cancer type: Mantle)
Description: as §1

[2] = system: HuT 78 (cancer type: TCL)
Description: as §1

JJN3 (cancer type: MM) = system: JJN3 (cancer type: MM)
Description: as §1

[3] = system: JVM2 (cancer type: Mantle)
Description: as §1

[4] = system: JeKo-1 (cancer type: Mantle)
Description: as §1

KMS11 (cancer type: MM) = system: KMS11 (cancer type: MM)
Description: as §1

[5] = system: KMS12PE (cancer type: MM)
Description: as §1

KMS18 (cancer type: MM) = system: KMS18 (cancer type: MM)
Description: as §1

KMS26 (cancer type: MM) = system: KMS26 (cancer type: MM)
Description: as §1

[6] = system: KMS28BM (cancer type: MM)
Description: as §1

[7] = system: KMS28PE (cancer type: MM)
Description: as §1

KMS34 (cancer type: MM) = system: KMS34 (cancer type: MM)
Description: as §1

[8] = system: Karpas-299 (cancer type: TCL)
Description: as §1

L363 (cancer type: MM) = system: L363 (cancer type: MM)
Description: as §1

LP1 (cancer type: MM) = system: LP1 (cancer type: MM)
Description: as §1

MM1.R (cancer type: MM) = system: MM1.R (cancer type: MM)
Description: as §1

MM1.S (cancer type: MM) = system: MM1.S (cancer type: MM)
Description: as §1

[9] = system: Mino (cancer type: Mantle)
Description: as §1

My-La (cancer type: TCL) = system: My-La (cancer type: TCL)
Description: as §1

[10] = system: NCI-H929 (cancer type: MM)
Description: as §1

[11] = system: OCI-LY1 (cancer type: DLBCL)
Description: as §1

[12] = system: OCI-LY19 (cancer type: DLBCL)
Description: as §1

[13] = system: OCI-LY3 (cancer type: DLBCL)
Description: as §1

[14] = system: OCI-MY5 (cancer type: MM)
Description: as §1

[15] = system: OCI-MY5/CRBN (cancer type: MM)
Description: as §1

[16] = system: OCI-MY5/Vec (cancer type: MM)
Description: as §1

[17] = system: OCI-MY7 (cancer type: MM)
Description: as §1

OPM2 (cancer type: MM) = system: OPM2 (cancer type: MM)
Description: as §1

[18] = system: RPMI 8226 (cancer type: MM)
Description: as §1

SKMM2 (cancer type: MM) = system: SKMM2 (cancer type: MM)
Description: as §1

[19] = system: SR-786 (cancer type: TCL)
Description: as §1

[20] = system: SU-DHL1 (cancer type: TCL)
Description: as §1

[21] = system: SU-DHL2 (cancer type: DLBCL)
Description: as §1

[22] = system: SU-DHL6 (cancer type: DLBCL)
Description: as §1

Se-Ax (cancer type: TCL) = system: Se-Ax (cancer type: TCL)
Description: as §1

U266 (cancer type: MM) = system: U266 (cancer type: MM)
Description: as §1

XG2 (cancer type: MM) = system: XG2 (cancer type: MM)
Description: as §1

| Structure (SMILES) | normalized area under the dose-response curve (AMO1 (cancer type: MM)) | normalized area under the dose-response curve (EJM (cancer type: MM)) | normalized area under the dose-response curve (FR4 (cancer type: MM)) | normalized area under the dose-response curve [1] | normalized area under the dose-response curve [2] | normalized area under the dose-response curve (JJN3 (cancer type: MM)) | normalized area under the dose-response curve [3] | normalized area under the dose-response curve [4] | normalized area under the dose-response curve (KMS11 (cancer type: MM)) | normalized area under the dose-response curve [5] | normalized area under the dose-response curve (KMS18 (cancer type: MM)) | normalized area under the dose-response curve (KMS26 (cancer type: MM)) | normalized area under the dose-response curve [6] | normalized area under the dose-response curve [7] | normalized area under the dose-response curve (KMS34 (cancer type: MM)) | normalized area under the dose-response curve [8] | normalized area under the dose-response curve (L363 (cancer type: MM)) | normalized area under the dose-response curve (LP1 (cancer type: MM)) | normalized area under the dose-response curve (MM1.R (cancer type: MM)) | normalized area under the dose-response curve (MM1.S (cancer type: MM)) | normalized area under the dose-response curve [9] | normalized area under the dose-response curve (My-La (cancer type: TCL)) | normalized area under the dose-response curve [10] | normalized area under the dose-response curve [11] | normalized area under the dose-response curve [12] | normalized area under the dose-response curve [13] | normalized area under the dose-response curve [14] | normalized area under the dose-response curve [15] | normalized area under the dose-response curve [16] | normalized area under the dose-response curve [17] | normalized area under the dose-response curve (OPM2 (cancer type: MM)) | normalized area under the dose-response curve [18] | normalized area under the dose-response curve (SKMM2 (cancer type: MM)) | normalized area under the dose-response curve [19] | normalized area under the dose-response curve [20] | normalized area under the dose-response curve [21] | normalized area under the dose-response curve [22] | normalized area under the dose-response curve (Se-Ax (cancer type: TCL)) | normalized area under the dose-response curve (U266 (cancer type: MM)) | normalized area under the dose-response curve (XG2 (cancer type: MM)) |
| --- | --- | --- | --- | --- | --- | --- | --- | --- | --- | --- | --- | --- | --- | --- | --- | --- | --- | --- | --- | --- | --- | --- | --- | --- | --- | --- | --- | --- | --- | --- | --- | --- | --- | --- | --- | --- | --- | --- | --- | --- |
| COc1cc(Nc2c(C#N)cnc3cc(OCCCN4CCN(C)CC4)c(OC)cc23)c(Cl)cc1Cl [Bosutinib] | 0.45 | 0.663 | 0.598 | 0.771 | 0.714 | 0.571 | 0.534 | 0.889 | 0.5 | 0.58 | 0.798 | 0.863 | 0.629 | 0.54 | 0.447 | 0.701 | 0.525 | 0.451 | 0.77 | 0.83 | 0.653 | 0.795 | 0.8 | 0.856 | 0.898 | 0.792 | 0.39 | 0.933 | 0.914 | 0.79 | 0.606 | 0.651 | 0.697 | 0.872 | 0.667 | 0.836 | 0.924 | 0.736 | 0.874 | 0.501 |
| COc1nc(N)nc2c1ncn2[C@@H]1O[C@H](CO)[C@@H](O)[C@@H]1O [Nelarabine] | 0.948 | 0.889 | 1.01 | 0.99 | 0.913 | 0.987 | 0.883 | 0.921 | 0.992 | 0.92 | 0.973 | 0.861 | 0.924 | 0.951 | 0.88 | 0.972 | 0.92 | 0.94 | 0.85 | 0.91 | 0.978 | 0.929 | 0.95 | 0.996 | 0.993 | 1.01 | 0.98 | 0.928 | 0.946 | 0.94 | 0.978 | 0.915 | 0.96 | 0.902 | 0.858 | 0.937 | 0.989 | 0.779 | 0.985 | 0.935 |
| Nc1nc(Cl)nc2c1ncn2[C@H]1C[C@H](O)[C@@H](CO)O1 [Cladribine] | 0.672 | 0.555 | 1.01 | 0.523 | 0.825 | 0.993 | 0.748 | 0.185 | 0.854 | 0.84 | 0.798 | 0.795 | 0.768 | 0.533 | 0.734 | 0.89 | 0.826 | 0.762 | 0.56 | 0.49 | 0.27 | 0.813 | 0.52 | 0.884 | 0.919 | 0.311 | 0.929 | 0.961 | 0.89 | 0.79 | 0.984 | 0.939 | 0.763 | 0.766 | 0.167 | 0.861 | 0.843 | 0.627 | 0.918 | 0.452 |
| CN(C)C/C=C/C(=O)Nc1cc2c(Nc3ccc(F)c(Cl)c3)ncnc2cc1O[C@H]1CCOC1 [Afatinib] | 0.562 | 0.66 | 0.685 | 0.69 | 0.496 | 0.57 | 0.497 | 0.531 | 0.53 | 0.53 | 0.822 | 0.848 | 0.682 | 0.529 | 0.461 | 0.636 | 0.521 | 0.637 | 0.49 | 0.5 | 0.643 | 0.74 | 0.63 | 0.796 | 0.739 | 0.819 | 0.372 | 0.548 | 0.477 | 0.62 | 0.692 | 0.467 | 0.642 | 0.709 | 0.558 | 0.758 | 0.811 | 0.604 | 0.801 | 0.496 |
| Cc1ccc(NC(=O)c2ccc(CN3CCN(C)CC3)cc2)cc1Nc1nccc(-c2cccnc2)n1 [Imatinib] | 0.789 | 0.887 | 0.816 | 0.943 | 0.9 | 0.789 | 0.759 | 0.915 | 0.714 | 0.9 | 0.807 | 0.918 | 0.902 | 0.79 | 0.562 | 0.876 | 0.749 | 0.785 | 0.84 | 0.88 | 0.958 | 0.98 | 0.93 | 1 | 0.928 | 0.935 | 0.793 | 0.892 | 0.804 | 0.93 | 0.752 | 0.885 | 0.926 | 0.934 | 0.774 | 0.943 | 0.92 | 0.79 | 0.783 | 0.839 |
| COc1cc2nccc(Oc3ccc(NC(=O)C4(C(=O)Nc5ccc(F)cc5)CC4)cc3)c2cc1OC [Cabozantinib] | 0.715 | 0.756 | 0.743 | 0.863 | 0.762 | 0.706 | 0.63 | 0.852 | 0.628 | 0.72 | 0.789 | 0.94 | 0.793 | 0.645 | 0.68 | 0.918 | 0.762 | 0.803 | 0.59 | 0.59 | 0.951 | 0.94 | 0.61 | 0.956 | 0.867 | 0.865 | 0.605 | 0.858 | 0.729 | 0.82 | 0.631 | 0.719 | 0.798 | 0.964 | 0.895 | 0.917 | 0.91 | 0.721 | 0.672 | 0.734 |
| Nc1ncn([C@@H]2O[C@H](CO)[C@@H](O)[C@H]2O)c(=O)n1 [Azacitidine] | 0.496 | 0.635 | 0.427 | 0.778 | 0.419 | 0.645 | 0.552 | 0.72 | 0.545 | 0.56 | 0.736 | 0.757 | 0.774 | 0.678 | 0.64 | 0.624 | 0.488 | 0.766 | 0.65 | 0.6 | 0.807 | 0.87 | 0.4 | 0.508 | 0.716 | 0.707 | 0.564 | 0.756 | 0.702 | 0.6 | 0.535 | 0.665 | 0.767 | 0.74 | 0.453 | 0.673 | 0.65 | 0.637 | 0.679 | 0.612 |
| Nc1cc(C(F)(F)F)c(-c2cc(N3CCOCC3)nc(N3CCOCC3)n2)cn1 [Buparlisib] | 0.424 | 0.654 | 0.454 | 0.493 | 0.348 | 0.55 | 0.497 | 0.365 | 0.477 | 0.55 | 0.445 | 0.498 | 0.562 | 0.38 | 0.165 | 0.513 | 0.414 | 0.493 | 0.28 | 0.3 | 0.516 | 0.627 | 0.3 | 0.562 | 0.564 | 0.571 | 0.509 | 0.605 | 0.561 | 0.71 | 0.392 | 0.358 | 0.573 | 0.473 | 0.375 | 0.689 | 0.685 | 0.431 | 0.443 | 0.303 |
